According to US10709744B1, “Probiotic biofilm suppositories” (priority 2019, dated 2020):
≈ marks a conversion by molar mass, not a printed value. Like-named read-outs stand apart in the source and are kept apart here.

What was measured:
Format in all cases: cell-based
[1] = system: Lactobacillus gasseri; test: Antibiotic MIC strip assay, planktonic LG; details: for MIC: Lactobacillus gasseri
Description: (§1) For antibiotic assay, and overnight culture was diluted to an optical start density (OD) of 0.13. […] Plates were incubated at 37° C. for 24 h before minimum inhibitory concentration (MIC) value were determined.

[2] = system: Lactobacillus rhamnosus; test: Antibiotic MIC strip assay, planktonic LRh
Description: as §1

[3] = system: Lactobacillus jensenii; test: Antibiotic MIC strip assay, planktonic LJ; details: for MIC: Lactobacillus jensenii
Description: as §1

[4] = system: Lactobacillus crispatus; test: Antibiotic MIC strip assay, planktonic LCr; details: for MIC: Lactobacillus crispatus
Description: as §1

[5] = system: Lactobacillus iners; test: Antibiotic MIC strip assay, planktonic LI
Description: as §1

[6] = system: LP Bacteria in form of biofilm; test: Effect of additives (cranberries, ascorbic acid) on Bacteria in form of biofilm survival and growth
From the text: High vaginal pH is associated with an increase of vaginal pathogens and the acidity of the vagina has long been understood to be a protective mechanism against colonization of anaerobes pathogens while creating a favourable environment for the lactobacilli to thrive. Examining the effect of different additives (cranberries and ascorbic acid) on Bacteria in form of biofilm LP (as part of a small scale). […] The aim is to add one of these additives along with the Bacteria in form of biofilm in the suppository composition. As such, their effect on Bacteria in form of biofilm survival and growth was tested.

[7] = planktonic LG, MIC strips, 24 h 37° C., read-out: MIC
[8] = Lacticaseibacillus rhamnosus, planktonic LRh, Table 7, read-out: MIC
[9] = Lacticaseibacillus rhamnosus, planktonic LRh, read-out: MIC
[10] = planktonic LJ, MIC strips, 24 h 37° C., read-out: MIC
[11] = planktonic LCr, MIC strips, 24 h 37° C., read-out: MIC
[12] = planktonic LI, MIC strips, 24 h 37° C., read-out: MIC

Row | Compound | MIC [1, 7] | MIC [2, 8] | MIC [2, 9] | MIC [3, 10] | MIC [4, 11] | MIC [5, 12] | also measured
1 | CN[C@H](CC(C)C)C(=O)N[C@H]1C(=O)N[C@@H](CC(N)=O)C(=O)N[C@H]2C(=O)N[C@H]3C(=O)N[C@H](C(=O)N[C@H](C(=O)O)c4cc(O)cc(O)c4-c4cc3ccc4O)[C@H](O)c3ccc(c(Cl)c3)Oc3cc2cc(c3O[C@@H]2O[C@H](CO)[C@@H](O)[C@H](O)[C@H]2O[C@H]2C[C@](C)(N)[C@H](O)[C@H](C)O2)Oc2ccc(cc2Cl)[C@H]1O [VAN, vancomycin] |  |  |  |  |  |  | MIC ([1]; 24 h): 1.5 µg/mL (≈ 1.04 µM); MIC ([2]; Lacticaseibacillus rhamnosus): > 256 µg/mL; MIC ([2]; planktonic LRh, Table 7): >256 µg/mL; MIC ([3]; 24 h): 1.5 µg/mL (≈ 1.04 µM); MIC ([4]; 24 h): 1.5 µg/mL (≈ 1.04 µM); MIC ([5]; 24 h): 4 µg/mL (≈ 2.76 µM)
2 | O=C1O[C@H]([C@@H](O)CO)C(O)=C1O [AA, Ascorbic Acid] |  |  |  |  |  |  | effect of addition of supplement on Bacteria in form of biofilm growth [6]: did not affect
3 | CC1(C)S[C@@H]2[C@H](NC(=O)C(C(=O)O)c3ccccc3)C(=O)N2[C@H]1C(=O)O (stereo partly drawn) [CB, carbenicillin] | 4 µg/mL (≈ 10.6 µM) | 4 µg/mL (≈ 10.6 µM) | 4 µg/mL (≈ 10.6 µM) | 8 µg/mL (≈ 21.1 µM) | 4 µg/mL (≈ 10.6 µM) | 64 µg/mL (≈ 169 µM) | 

More lines, main results first:

Row | MIC [1, 7] | MIC [2, 8] | MIC [2, 9] | MIC [3, 10] | MIC [4, 11] | MIC [5, 12] | Compound | also measured
4 | 2 µg/mL (≈ 3.26 µM) | 2 µg/mL (≈ 3.26 µM) | 2 µg/mL (≈ 3.26 µM) | 2 µg/mL (≈ 3.26 µM) | 2 µg/mL (≈ 3.26 µM) | 16 µg/mL (≈ 26.1 µM) | CO[C@@H]1[C@@H](OC(N)=O)[C@@H](O)[C@H](Oc2ccc3c(O)c(NC(=O)c4ccc(O)c(CC=C(C)C)c4)c(=O)oc3c2C)OC1(C)C [NVB, novobiocin] | 
5 | > 256 µg/mL | 2 µg/mL (≈ 6.04 µM) | 0.25 µg/mL (≈ 0.754 µM) | > 256 µg/mL | > 256 µg/mL |  | O=C(O)c1cn(C2CC2)c2cc(N3CCNCC3)c(F)cc2c1=O [CIP, ciprofloxacin] | susceptibility of planktonic bacteria to antibiotic ([1]; planktonic LG): full resistance; susceptibility of planktonic bacteria to antibiotic ([3]; planktonic LJ): not susceptible; susceptibility of planktonic bacteria to antibiotic ([4]; planktonic LCr): not susceptible
